# Key:
# [1] = system: HepG2; assay: Antiproliferative activity against human HepG2 cells assessed as cell growth inhibition; assay type: functional, cell-based
# [2] = system: HT-29; assay: Potency index, ratio of tirapazamine IC50 to compound IC50 for antiproliferative activity against human HT-29 cells; assay type: functional
# [3] = system: HT-29; assay: Antiproliferative activity against human HT-29 cells assessed as inhibition of cell growth by SRB assay; assay type: functional, cell-based
# [4] = system: HCT-116; assay: Antiproliferative activity against human HCT-116 cells assessed as inhibition of cell growth; assay type: functional, cell-based
# [5] = system: MCF7; assay: Antiproliferative activity against human MCF7 cells assessed as inhibition of cell growth; assay type: functional, cell-based
# [6] = system: OVCAR-4; assay: Antiproliferative activity against human OVCAR-4 cells assessed as cell growth inhibition; assay type: functional, cell-based
# [7] = system: HL-60; assay: Antiproliferative activity against human HL-60 cells assessed as inhibition of cell growth incubated for 72 hrs by MTT assay; assay type: functional, cell-based; conditions: HL-60, 72 h
# [8] = system: MCF7; assay: Cytotoxicity against human MCF7 cells assessed as inhibition of cell growth incubated for 72 hrs by MTT assay; assay type: functional, cell-based; conditions: MCF7, 72 h
# [9] = system: MOLT-4; assay: Antiproliferative activity against human MOLT-4 cells assessed as inhibition of cell growth incubated for 72 hrs by MTT assay; assay type: functional, cell-based; conditions: MOLT-4, 72 h
# [10] = Ratio of IC50 for antiproliferative activity against human PC-3 cells assessed as inhibition of cell growth under normoxia condition to IC50 for antiproliferative activity against human PC-3 cells assessed as inhibition of cell growth under hypoxia condition; assay type: functional
# [11] = system: PC-3; assay: Antiproliferative activity against human PC-3 cells assessed as inhibition of cell growth under normoxia condition incubated for 72 hrs by MTT assay; assay type: functional, cell-based; conditions: PC-3, 72 h
# [12] = Ratio of IC50 for antiproliferative activity against human HL-60 cells assessed as inhibition of cell growth under normoxia condition to IC50 for antiproliferative activity against human HL-60 cells assessed as inhibition of cell growth under hypoxia condition; assay type: functional
# [13] = Ratio of IC50 for antiproliferative activity against human Bel-7402 cells assessed as inhibition of cell growth under normoxia condition to IC50 for antiproliferative activity against human Bel-7402 cells assessed as inhibition of cell growth under hypoxia condition; assay type: functional
# [14] = system: ECa-109 cell line; assay: Antiproliferative activity against human Eca-109 cells assessed as inhibition of cell growth under normoxia condition incubated for 72 hrs by MTT assay; assay type: functional, cell-based; conditions: ECa-109, 72 h
# [15] = system: ECa-109 cell line; assay: Antiproliferative activity against human Eca-109 cells assessed as inhibition of cell growth under hypoxia condition incubated for 72 hrs by MTT assay; assay type: functional, cell-based; conditions: ECa-109, 72 h
# [16] = system: Bel-7402; assay: Antiproliferative activity against human Bel-7402 cells assessed as inhibition of cell growth under normoxia condition incubated for 72 hrs by MTT assay; assay type: functional, cell-based; conditions: Bel-7402, 72 h
# [17] = system: Bel-7402; assay: Antiproliferative activity against human Bel-7402 cells assessed as inhibition of cell growth under hypoxia condition incubated for 72 hrs by MTT assay; assay type: functional, cell-based; conditions: Bel-7402, 72 h
# [18] = Ratio of IC50 for antiproliferative activity against human Eca-109 cells assessed as inhibition of cell growth under normoxia condition to IC50 for antiproliferative activity against human Eca-109 cells assessed as inhibition of cell growth under hypoxia condition; assay type: functional
# [19] = system: HL-60; assay: Antiproliferative activity against human HL-60 cells assessed as inhibition of cell growth under hypoxia condition incubated for 72 hrs by MTT assay; assay type: functional, cell-based; conditions: HL-60, 72 h
# [20] = system: MCF7; assay: Antiproliferative activity against human MCF7 cells assessed as inhibition of cell growth under hypoxia condition incubated for 72 hrs by MTT assay; assay type: functional, cell-based; conditions: MCF7, 72 h
# [21] = system: MCF7; assay: Antiproliferative activity against human MCF7 cells assessed as inhibition of cell growth under normoxia condition incubated for 72 hrs by MTT assay; assay type: functional, cell-based; conditions: MCF7, 72 h
# [22] = system: HL-60; assay: Antiproliferative activity against human HL-60 cells assessed as inhibition of cell growth under normoxia condition incubated for 72 hrs by MTT assay; assay type: functional, cell-based; conditions: HL-60, 72 h
# [23] = system: PC-3; assay: Antiproliferative activity against human PC-3 cells assessed as inhibition of cell growth under hypoxia condition incubated for 72 hrs by MTT assay; assay type: functional, cell-based; conditions: PC-3, 72 h
# [24] = Ratio of IC50 for antiproliferative activity against human MCF7 cells assessed as inhibition of cell growth under normoxia condition to IC50 for antiproliferative activity against human MCF7 cells assessed as inhibition of cell growth under hypoxia condition; assay type: functional
# [25] = system: Panel NCI-60 (60 carcinoma cell lines); assay: Antiproliferative activity against human Panel NCI-60 (60 carcinoma cell lines) assessed as cell growth inhibition incubated for 48 hrs by SRB assay; assay type: functional
# [26] = system: BT-474; assay: Antiproliferative activity against human BT-474 cells assessed as inhibition of cell growth; assay type: functional, cell-based
# [27] = biological target: T1, Tyrosine-protein kinase SYK (Homo sapiens, UniProt P43405); assay: Inhibition of human SYK using 5-Fluo-Ahx-GAPDYENLQELNKK-Amid as substrate in presence of ATP by microfluidic mobility shift assay
# [28] = biological target: T1, Tyrosine-protein kinase SYK; assay: Inhibition of SYK in human Ramos cells assessed as reduction in anti IgM-induced phosphorylation of BLNK by flow cytometry assay; assay type: cell-based
compound,measurement,setting,value
O=C1CN2C(=O)/C(=C/c3ccc([N+](=O)[O-])cc3)N=C(c3ccccc3)N2C(=S)N1,IC50,[1],2670 nM
N#CCNc1nc2ccccc2[n+]([O-])n1,Ratio IC50,[2],1.9
same,IC50,[3],> 300 nM
O=c1c(/C=C/c2cccs2)nnc(S)n1/N=C/c1ccccc1,IC50,[4],8790 nM
same,IC50,[1],8790 nM
same,IC50,[5],8790 nM
CCc1nc2ccccc2[n+]([O-])n1,Ratio IC50,[2],1.3
same,IC50,[3],> 3000 nM
CN(C)CCNc1nc2ccccc2[n+]([O-])n1,Ratio IC50,[2],3.9
same,IC50,[3],> 1000 nM
Cc1c(C#N)c2nnc(C#N)c(N)n2c1-c1ccccc1,IC50,[6],2770 nM
CSc1nnc2c(n1)-c1cccc3cccc-2c13,IC50,[7],30000 nM
same,IC50,[8],30000 nM
same,IC50,[9],30000 nM
CC(=O)c1nnc2c(C#N)c(C)c(-c3ccccc3)n2c1C,IC50,[6],2770 nM
O=[N+]([O-])c1ccccc1CSc1nnc2c(n1)-c1cccc3cccc-2c13,IC50,[7],30000 nM
same,IC50,[8],30000 nM
same,IC50,[9],30000 nM
CCSc1nnc2c(n1)-c1cccc3cccc-2c13,IC50,[7],30000 nM
same,IC50,[8],30000 nM
same,IC50,[9],30000 nM
CN(C)CCCNc1nc2ccccc2[n+]([O-])n1,Ratio IC50,[2],1.2
same,IC50,[3],830 nM
COc1nc2ccccc2[n+]([O-])n1,Ratio IC50,[2],3.3
same,IC50,[3],> 300 nM
CNCCNc1nc2ccccc2[n+]([O-])n1,Ratio IC50,[2],6.11
same,IC50,[3],2300 nM
Nn1c(SC2Sc3nnc(/C=C/c4cccs4)c(=O)n3NC2=O)nnc(/C=C/c2cccs2)c1=O (stereo not given),IC50,[4],8790 nM
same,IC50,[1],8790 nM
same,IC50,[5],8790 nM
CC(=O)Nn1c(S)nnc(/C=C/c2cccs2)c1=O,IC50,[4],8790 nM
same,IC50,[1],8790 nM
same,IC50,[5],8790 nM
CCNc1n[n+]([O-])c2cc([N+](=O)[O-])ccc2[n+]1[O-],Ratio IC50,[10],1.9
same,IC50,[11],200 nM
same,Ratio IC50,[12],1.4
same,Ratio IC50,[13],1.6
same,IC50,[14],200 nM
same,IC50,[15],200 nM
same,IC50,[16],200 nM
same,IC50,[17],200 nM
same,Ratio IC50,[18],2.2
same,IC50,[19],200 nM
same,IC50,[20],200 nM
same,IC50,[21],200 nM
same,IC50,[22],200 nM
same,IC50,[23],200 nM
[O-][n+]1nc(CCO)nc2ccccc21,Ratio IC50,[2],1.2
same,IC50,[3],> 3000 nM
Clc1ccc(CSc2nnc3c(n2)-c2cccc4cccc-3c24)cc1Cl,IC50,[7],30000 nM
same,IC50,[8],30000 nM
same,IC50,[9],30000 nM
Cc1c(-c2ccccc2)c(C#N)c2nnc(C#N)c(N)n12,IC50,[6],2770 nM
[O-][n+]1nc(NCc2ccccc2)[n+]([O-])c2ccc(Cl)cc21,Ratio IC50,[10],1.4
same,IC50,[11],200 nM
same,Ratio IC50,[12],1
same,Ratio IC50,[24],1.1
same,Ratio IC50,[13],1.8
same,IC50,[14],200 nM
same,IC50,[15],200 nM
same,IC50,[16],200 nM
same,IC50,[17],200 nM
same,Ratio IC50,[18],3.2
same,IC50,[19],200 nM
same,IC50,[20],200 nM
same,IC50,[21],200 nM
same,IC50,[22],200 nM
same,IC50,[23],200 nM
c1ccc(CSc2nnc3c(n2)-c2cccc4cccc-3c24)cc1,IC50,[7],30000 nM
same,IC50,[8],30000 nM
same,IC50,[9],30000 nM
[O-][n+]1nc(Nc2ccccc2)[n+]([O-])c2ccc(Cl)cc21,Ratio IC50,[10],1.3
same,IC50,[11],200 nM
same,Ratio IC50,[12],6.9
same,Ratio IC50,[24],3
same,IC50,[14],200 nM
same,IC50,[15],200 nM
same,IC50,[16],200 nM
same,IC50,[17],200 nM
same,Ratio IC50,[18],2.8
same,IC50,[19],200 nM
same,IC50,[20],200 nM
same,IC50,[21],200 nM
same,IC50,[22],200 nM
same,IC50,[23],200 nM
Clc1ccc(CSc2nnc3c(n2)-c2cccc4cccc-3c24)c(Cl)c1,IC50,[7],30000 nM
same,IC50,[8],30000 nM
same,IC50,[9],30000 nM
O=C1CNN(CSc2nc3ccc(I)cc3c(=O)n2Cc2ccccc2)C=N1,GI50,[25],22600 nM
same,TGI,[25],61400 nM
same,CC50,[25]; read-out: LC50 (the source's name),89300 nM
CCn1nc(-c2cccs2)nc2c(=O)n(C)c(=O)nc1-2,IC50,[26],900 nM
Cc1nc2c(=O)n(C)c(=O)nc-2n(C)n1,IC50,[26],900 nM
"N#Cc1c[nH]c2c(Nc3nc(N[C@@H]4CCCCC4N)nnc3C(N)=O)cccc12 (single isomer, unassigned)",IC50,[27],0.8 nM
same,IC50,[28],14 nM
